The text below walks through data of patent US8252829B2, “Aminopyrrolidinone derivatives and uses thereof” (Link Medicine Corporation, priority 2009, dated 2012).

Experiment [1] deals with Farnesyl Transferase (Ras farnesylation) in COS-7 cells. The experiment in a line: Cellular assay for farnesyl transferase activity (cytosolic Ras in COS-7 cells, Western blot). Type of experiment: cell-based. The note with it: 24 hr treatment, cytosolic Ras/actin ratio, read-out: Cell IC50. The source says:
Ras is a small GTP binding protein whose farnesylation and condequent membrane association can be reduced by inhibition of farnesyl transferase (Appels et al., Oncologist 10:565-578, 2005; Basso et al., J. Lipid Res. 47:15-31, 2006; Tamanoi, Trends Biochem. Sci. 18:349-353, 1993; each of which is incorporated herein by reference). Treatment with certain farnesyl transferase inhibitors (FTIs) reduces the farnesylation and membrane association of Ras, leading to accumulation of Ras in the cytosol of the cells. An assay was developed to monitor FTase activity, based on the amount of Ras present in the cytosolic fraction of COS-7 cells after FTI treatment. On day 0, COS-7 cells were passaged into 6-well plates at a density of 4×10^5 cells/well. Beginning on day 1, cells were treated with test compounds (e.g. FTIs) in 0.2% DMSO for 24 hr. On day 2, cells were lysed by passage through a 25 gauge needle 10 times in 100 μl Buffer 1 (50 mM Tris, 140 mM NaCl, 2 mM EDTA, protease inhibitor cocktail, pH 7.4) and lysates were centrifuged at 16,000 g for 30 min to isolate the cytosolic fraction (supernatant). The cytosolic fraction was analyzed by Western blot using anti-Ras antibody and anti-actin antibody for loaning control.
Western Blotting: Following transfer of SDS gels onto NC membrane, all membranes were blocked with 5% non-fat milk in TBST (50 mM Tris-HCl pH7.4, 150 mM NaCl, 0.1% Tween 20), incubated with primary antibody overnight with 1% BSA in TBST, washed three times with TBST, and incubated with horseradish peroxidase-conjugated secondary antibody for 1 hour (Promega). Bound antibodies were detected using enhanced chemiluminascence (NEM). Results were quantified based on densitometric analysis of Ras signal normalized to actin signal (Ras/actin ratio). Dose response curves were generated for serial dilutions of test compounds, which were then used to measure an IC50 for the test compound by curve fitting with Prism or equivalent software product.

Experiment [2] addresses farnesyl transferase (FTase) (Homo sapiens, UniProt P49354+P49356). Kind of experiment: In vitro farnesyl transferase assay (fluorescent dansyl-pentapeptide). The note with it: dGCVLS 4 μM, FPP 5 μM, 25-50 nM FTase, 1% DMSO, room temperature. Type of experiment: biochemical. Here is the method: Compounds were analyzed for inhibition of farnesyl transferase (FTase) activity using an established fluorescent peptide-based assay (Pompliano et al 1992 J. Am. Chem. Soc. 114:7945; U.S. Pat. No. 5,525,479, issued Jun. 11, 1996; each of which is incorporated herein by reference). In summary, a dansyl-pentapeptide (dGCVLS) was incubated at 4 μM with 5 μM farnesyl pyrophosphate (FPP) and 25-50 nM FTase in 50 mM Tris-HCl/12 mM MgCl2/12 μM ZnCl2/6 mM DTT/0.2% octyl-D-β-glucopyranoside/pH 7.0 at room temperature while the increase in fluorescence of the peptide at Ex=340 nm, Em=485 nm upon farnesyl addition was monitored continuously by a spectrofluorometer. Test compounds were added to the reaction mixture and the final results were compared to negative control (with solvent only), to allow measurement of the degreee of inhibition at each concentration of compound tested. Serial dilution series of test compounds were used to allow measurement of the IC50s and calculation of the resultant Ki. The linear portion of the reaction progress curve thus created was measured to yield an initial rate (Vo); a plot of Vo versus inhibitor concentration was fit by non-linear regression analysis (GraphPad Prism software) to calculate the […] and the Ki. All reactions in the inhibitor experiments contain a final concentration of 1% DMSO.

Experiment [3] relates to isolated islets / INS1 cells. The experiment in a line: Oxygen consumption, Seahorse XF24 bioenergetic assay. Type of experiment: cell-based, mice. The note with it: 1 nM. Here is the method:
Impaired mitochondrial function is shown by a decreased rate of oxygen consumption. For example, INS1 cells exposed to palmitate show a significant decrease in oxygen consumption rate, both under basal glucose and following stimulation with glucose. The effect of compound 28 at 1 nM on oxygen consumption was determined at 2.5 and 3.5 day incubation time points. Oxygen consumption in INS1 was measured using a Seahorse XF24 bioenergetic assay. Assays have been previously described in detail (See, Wu M, et al. Am J Physiol Cell Physiol 2007; 292:C125-36).
In one aspect, islet oxygen consumption was measured using the XF24 Islet Capture Microplate available from Seahorse Biosciences. An example of an assay to measure islet consumption is as follows:
Modified XF Assay Media (MA Media): Supplement XF DMEM assay media with 3 mM glucose and 1% FBS to run whole islets. (FBS is needed to prevent islets from becoming too adherent). Components/Formulation of Modified XF Assay Media: […]
The XF assay template is prepared via the Assay Wizard using the XF24 operation manual. The assay template is uploaded to the XF24 Analyzer before starting the assay. […]
Whole islets are prepared by standard laboratory procedure. […] The islets are counted under a dissecting microscope. […] The count of the islets is determined and the volume adjusted so that there are ˜70 islets for every 100 microliters of the islet suspension. […]

The structures appear in SMILES notation.

For `N#Cc1ccc(Cn2cncc2CN[C@@H]2CCN([C@@H]3CCOc4ccc(F)cc43)C2=O)cc1` [Compound 71], the IC50 in experiment [1] was determined as 2.5 nM.

Take `N#Cc1ccc(Cn2cncc2CN[C@H]2CCN([C@@H]3CCCc4ccc(Cl)cc43)C2=O)cc1` [Compound 30]: the IC50 in experiment [1] is 2.8 nM. This compound also gave a Ki in experiment [2] of 0.12 nM.

Consider `N#Cc1ccc(Cn2cncc2CN[C@H]2CCN(C3CCOc4ccc(F)cc43)C2=O)cc1` (stereo partly shown) [Compound 70], for which the IC50 in experiment [1] stood at 42 nM.

As to `N#Cc1ccc(Cn2cncc2CN[C@H]2CCN([C@@H]3CCOc4ccc(Cl)cc43)C2=O)cc1` [Compound 29], the IC50 in experiment [1] amounted to 1.8 nM. Besides, the Ki in experiment [2] was determined as 0.021 nM.

As for `N#Cc1ccc(Cn2cncc2CN[C@H]2CCN([C@@H]3CCOc4ccc(F)cc43)C2=O)cc1` [Compound 28], the IC50 in experiment [1] came out at 1.4 nM. Also, the “increase in mitochondrial respiration (Oxygen Consumption Rate vs. time, % of base line)” value in experiment [3] (2.5 days incubation (FIG. 1)) was 50%. In experiment [3] (isolated islets (FIGS. 1 and 2)), the “increase in oxygen consumption” value came out at 50%. Also, the affinity in experiment [2] corresponds to a Ki of 0.059 nM.
